Measurements: PubChem BioAssay (NCI)
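1) Cells in 96-well plates. 2) Compound, 48 h, 5 concentrations. 3) Linear interpolation between surrounding doses. 4) Unreached endpoint = highest concentration. At the GI50, growth is halved. The concentration for full growth arrest is given as TGI.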

Assays:
Assay in all cases: NCI tumour cell line growth inhibition, 48 h
SNB-75 CNS = system: SNB-75 CNS
CAKI-1 renal = system: CAKI-1 renal
HCT-15 colon = system: HCT-15 colon
M14 melanoma = system: M14 melanoma
SW-620 colon = system: SW-620 colon
HOP-62 NSCLC = system: HOP-62 NSCLC
OVCAR-4 ovarian = system: OVCAR-4 ovarian
SF-268 CNS = system: SF-268 CNS
OVCAR-5 ovarian = system: OVCAR-5 ovarian
UACC-257 melanoma = system: UACC-257 melanoma

Structure (SMILES)	TGI (SNB-75 CNS) [µM]	TGI (CAKI-1 renal) [µM]	TGI (HCT-15 colon) [µM]	TGI (M14 melanoma) [µM]	TGI (SW-620 colon) [µM]	TGI (HOP-62 NSCLC) [µM]	TGI (OVCAR-4 ovarian) [µM]	TGI (SF-268 CNS) [µM]	TGI (OVCAR-5 ovarian) [µM]	TGI (UACC-257 melanoma) [µM]	GI50 (SNB-75 CNS) [µM]	GI50 (CAKI-1 renal) [µM]	GI50 (HCT-15 colon) [µM]	GI50 (M14 melanoma) [µM]	GI50 (SW-620 colon) [µM]	GI50 (HOP-62 NSCLC) [µM]	GI50 (OVCAR-4 ovarian) [µM]	GI50 (SF-268 CNS) [µM]	GI50 (OVCAR-5 ovarian) [µM]	GI50 (UACC-257 melanoma) [µM]
COc1ccc(CC2NCCc3cc(OC)c(OC)cc32)cc1Br (stereo not drawn)	> 83.2	> 100	> 100	31	> 70.5	> 100	> 100	> 100	> 77.7	45.6	–	–	–	–	–	–	–	–	–	–
CCN(CC)c1ccc(N=Nc2ccc(-c3nc4ccc[n+](C)c4s3)cc2)cc1	27.5	40.3	32.1	37.6	26.1	38.9	20	48.9	31.1	24.1	–	–	–	–	–	–	–	–	–	–
Clc1ccc(C=Nc2ccc3c(c2)Cc2ccccc2-3)c(Cl)c1	> 100	> 100	> 100	> 100	> 100	> 100	> 100	> 100	> 100	> 100	–	–	–	–	–	–	–	–	–	–
N#CC1CC2(C1)OCCS2 (stereo not drawn)	> 100	> 100	> 100	> 100	> 100	> 100	> 100	> 100	> 100	> 100	–	–	–	–	–	–	–	–	–	–
O=C1CCC(O)=C1N=Nc1ccccc1	> 100	> 100	> 100	> 100	> 100	> 100	> 100	> 100	> 100	> 100	–	–	–	–	–	–	–	–	–	–
O=C(Nc1c(Cl)cc([N+](=O)[O-])cc1Cl)C(=O)C(C1OC(=O)c2ccccc21)[N+](=O)[O-] (stereo not drawn)	> 100	> 100	> 100	> 100	> 100	> 100	> 100	> 100	> 100	> 100	–	–	–	–	–	–	–	–	–	–
C=C1CCC(CC[C@@H]2CC[C@]3(OC2)O[C@@]2(O)CC[C@]3(C)OC2(C)C)C(C)(C)[C@H]1C/C=C1/C(=O)OC[C@@H]1O (stereo partly drawn)	19.3	16.5	3.25	12.3	12.6	19.9	5.51	8.89	6.65	4.84	–	–	–	–	–	–	–	–	–	–
C=CCc1ccc(Oc2cc(CC=C)c3c(c2O)O[C@@H](CO)[C@H]3c2ccc(O)c(-c3cc(CC=C)ccc3O)c2)cc1	> 100	> 100	> 100	> 100	> 100	> 100	> 100	> 100	> 100	> 100	–	–	–	–	–	–	–	–	–	–
O=C1CSC(/C(=N/Nc2ccccc2)c2nc3ccccc3[nH]2)=N1	97.6	56.1	> 100	> 100	> 100	67.3	> 100	> 100	> 100	> 100	–	–	–	–	–	–	–	–	–	–
COc1cc(C(=O)c2cc(C)c3[nH]c4ccc(C)cc4c3c2C)cc(OC)c1OC	–	> 40.5	> 100	> 100	> 100	> 100	> 100	> 100	> 100	> 100	< 0.01	< 0.01	< 0.01	< 0.01	< 0.01	< 0.01	0.0714	< 0.0186	< 0.01	4.5
O=C1[C@@H]2C(c3ccccc3F)=NO[C@@H]2C(=O)N1c1ccc(Cc2ccc(N3C(=O)[C@H]4C(c5ccccc5F)=NO[C@H]4C3=O)cc2)cc1	> 100	> 100	> 100	> 100	> 100	> 100	> 100	> 100	> 100	> 100	–	–	–	–	–	–	–	–	–	–
O=C(O)C1C(Br)(c2ccccc2)C1(Br)c1ccccc1 (stereo not drawn)	93.9	81.9	47.5	> 100	> 100	> 100	64.1	69.7	> 100	> 100	–	–	–	–	–	–	–	–	–	–
COc1cc2[nH]c(C(=O)c3cc(OC)c(OC)c(OC)c3)c(N)c2cc1C#CC1CC1	3.99	> 100	> 100	> 100	> 100	> 100	> 100	> 100	> 100	> 100	1.02	2.54	2.3	1.93	2.9	2.64	4.01	9.08	11.9	> 100
CN(C)C(=O)[C@H](O)[C@H](Cc1ccccc1)NC(=O)c1cc2cc(Cl)ccc2[nH]1	65.6	> 77.5	81.5	67.6	> 100	66.6	> 100	73.3	49.9	43.5	17.4	19.3	22.4	23.2	26.4	22.6	25.8	21.1	19.1	16.2
ClCC[N+]12CC[N+](CCCl)(CC1)C2	> 100	> 100	> 100	> 100	> 100	> 100	> 100	> 100	> 100	> 100	–	–	–	–	–	–	–	–	–	–
CCCCCCCCCCCC(=O)OCC1OC(OC)C(NC(=O)N(CCCl)N=O)C(O)C1O (stereo not drawn)	52.8	> 100	96.1	24.5	24.5	42.9	37.6	16.4	57.7	27.5	–	–	–	–	–	–	–	–	–	–

Structure (SMILES)	TGI (SNB-75 CNS) [µM]	TGI (CAKI-1 renal) [µM]	TGI (HCT-15 colon) [µM]	TGI (M14 melanoma) [µM]	TGI (SW-620 colon) [µM]	TGI (HOP-62 NSCLC) [µM]	TGI (OVCAR-4 ovarian) [µM]	TGI (SF-268 CNS) [µM]	TGI (OVCAR-5 ovarian) [µM]	TGI (UACC-257 melanoma) [µM]	GI50 (SNB-75 CNS) [µM]	GI50 (CAKI-1 renal) [µM]	GI50 (HCT-15 colon) [µM]	GI50 (M14 melanoma) [µM]	GI50 (SW-620 colon) [µM]	GI50 (HOP-62 NSCLC) [µM]	GI50 (OVCAR-4 ovarian) [µM]	GI50 (SF-268 CNS) [µM]	GI50 (OVCAR-5 ovarian) [µM]	GI50 (UACC-257 melanoma) [µM]
O=c1c2ccccc2c(=O)c2c1[nH]c1c(-c3ccccc3)c(-c3ccccc3)c(=O)c12	52.1	4.99	4.22	5.63	14.1	9.15	> 100	> 100	14.7	8.22	15.1	1.93	1.31	2.41	3.85	3.28	6.43	4.48	4.27	2.46
ClCc1cccc(Cn2cnc3nc(Cl)nc(Cl)c32)c1	2.2	3.4	2.13	2.28	1.67	3.44	3.21	3.83	3.31	7.35	0.912	1.89	0.955	0.854	0.419	1.99	1.56	1.38	1.63	2.48
O=C1NC(=O)C(CC2CCCCCCCCCCC2=O)C(=O)N1 (stereo not drawn)	> 100	> 100	> 100	> 100	> 100	> 100	> 100	> 100	> 100	> 100	–	–	–	–	–	–	–	–	–	–
Nc1ccn(C2CCC(CO)O2)c(=O)n1 (stereo not drawn)	> 1000	> 1000	> 1000	> 1000	> 1000	> 1000	> 1000	> 1000	> 1000	> 1000	> 1000	> 1000	> 1000	–	> 1000	> 1000	> 1000	> 1000	> 1000	> 1000
O=C(CCC1OCCO1)Nc1cc(NCc2ccccc2)ccc1OCc1ccccc1	> 100	71.3	> 100	> 100	> 100	> 100	> 100	> 100	> 100	53.3	–	–	–	–	–	–	–	–	–	–
O=C(O)[C@H](NS(=O)(=O)c1ccc([N+](=O)[O-])cc1)c1ccccc1	> 100	> 100	> 100	> 100	> 100	> 100	> 100	> 100	> 100	> 100	–	–	–	–	–	–	–	–	–	–
O=c1cccc(C#CC#CC2=CCCCC2)o1	36.8	10.3	10.9	6.34	18.2	16.3	> 49.3	20.6	10.2	12.9	7.1	6.48	2.76	2.13	3.4	8.65	28	9.15	6.21	7.49
O=C(NCO)NCOCn1c(=O)n(CO)c(=O)n(CO)c1=O	> 100	> 100	60.9	31.7	56.4	> 100	> 77	> 80.8	> 100	99.4	–	–	–	–	–	–	–	–	–	–
C/C(N=NC(=S)N(C)C)=C1\C=CC=CN1O	> 100	> 100	> 84.1	> 100	> 100	> 47.3	> 100	> 100	> 100	> 100	–	–	–	–	–	–	–	–	–	–
O=C(/C=C\c1ccc(NCc2ccc(C(=O)O)cc2)cc1)CCl	26.3	32.8	12.7	35.3	11.6	29.6	26.9	24.7	34.5	23.8	13.4	16.6	3.35	15	3.14	15.5	13.9	10.6	17.8	11.4
CCCCON(OC(=O)c1ccc2ccc3cccc4ccc1c2c34)C(C)=O	41.7	32.6	> 100	55.3	39.1	60.1	59.9	40.5	92	> 100	19.9	14.4	30.9	22.7	18.5	24	23.5	19.5	23.2	60.3
CC1=C[C@H]2c3c(c(O)c(O)c4oc(-c5ccccc5)cc(=O)c34)[C@H](c3cc(O)c(O)c4oc(-c5ccccc5)cc(=O)c34)[C@H]2C(C)(C)C1	5.76	4.57	10.4	4.88	13.9	12.9	9.55	17	13	9.47	0.286	0.621	1.82	0.887	0.934	0.76	1.56	0.541	3.22	1.72
Cc1ccc(-c2nc3ccc(Cl)cc3c(=O)n2N2C(=O)CSC2c2ccccc2Cl)cc1 (stereo not drawn)	4.74	> 100	> 100	> 100	> 100	5.09	> 100	> 100	> 100	> 100	1.39	4.82	> 100	56.2	> 100	1.98	4.54	9.97	> 100	> 100
O=C1Nc2ccc(F)cc2/C1=C/c1ccc[nH]1	> 25	> 25	> 25	> 25	> 25	> 25	> 25	> 25	> 25	> 25	> 25	8.03	11.5	> 25	24.6	> 25	4.06	> 25	> 21.3	> 25
Cc1[nH]c2ccccc2c(=O)c1CC=C(Cl)Cl	37.5	> 100	> 100	> 100	> 100	64.5	79.9	> 100	> 100	> 100	10.6	63.9	> 100	> 100	> 100	24.1	18.6	31.2	> 100	57
CC(C)(C[C@H]1CN(S(=O)(=O)c2cccc(C(F)(F)F)c2)c2cc(-c3cc(F)cc(OC(F)F)c3)ccc2O1)C(=O)O	23.4	24.4	16.9	17.5	21.5	23.8	41.7	24.7	25.9	27.3	5.31	10.5	4.19	4.59	5.02	6.65	13.2	10.3	12.6	11.5
